In patent US7034056B2, “Aryl and biaryl compounds having MCH modulatory activity” (Pharmacopeia Drug Discovery, inc., priority 2001, dated 2006):

Target: T1, hMCHR (MCH receptor) (Homo sapiens, UniProt Q99705)
T1 construct: (or internally produced); host or cells: CHO (Chinese hamster ovary) cells, membrane preparation
Assay: MCH Assay PCOP Protocol ([125I]-MCH SPA binding to hMCHR-CHO membranes)
Details: [125I]-MCH 0.5 nM, hMCHR-CHO membranes; read-out: Activity (ranges of Ki values)
Experimental: A reaction mixture of 10 μg hMCHR-CHO overexpressing membranes (from Receptor Biology, Inc., Beltsville, Md., or internally produced) and 100 μg/well WGA-SPA beads (from Amersham Pharmacia Biotech, Inc., Piscataway, N.J.)/100 μl was prepared in MCHR assay buffer (25 mM HEPES, pH 7.4, 10 mM NaCl, 10 mM MgCl2, 5 mM MnCl2, 0.1% BSA). […] The assay plates were shaken for 5 minutes on a plate shaker, then incubated for 2 hours before cpm/well were determined in a Microbeta Trilux counter (from PerkinElmer Wallac, Inc., Gaithersburg, Md.).

T1 sequence (Q99705 whole entry): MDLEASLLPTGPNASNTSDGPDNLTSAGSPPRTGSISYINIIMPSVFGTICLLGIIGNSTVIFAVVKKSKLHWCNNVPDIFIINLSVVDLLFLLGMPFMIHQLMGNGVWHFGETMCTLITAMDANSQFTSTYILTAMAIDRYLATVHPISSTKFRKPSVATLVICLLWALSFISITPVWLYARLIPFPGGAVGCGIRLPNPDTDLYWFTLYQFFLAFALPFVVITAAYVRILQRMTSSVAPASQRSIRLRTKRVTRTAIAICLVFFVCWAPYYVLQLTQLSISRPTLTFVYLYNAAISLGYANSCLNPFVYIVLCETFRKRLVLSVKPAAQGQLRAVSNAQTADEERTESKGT

SMILES	Ki
O=C(NCC(CCNC1CCCC1)c1ccc(Cl)c(Cl)c1)c1cc(C(F)(F)F)cc(C(F)(F)F)c1 (racemic) [Example 20, (R,S)-N-[4-Cyclopentylamino-2-(3,4-dichloro-phenyl)-butyl]-3,5-bis-trifluoromethyl-benzamide]	501 to 2500 nM
CC(C)NCCC(CNC(=O)Oc1ccc(Cl)cc1)c1ccc(-c2cccc(C#N)c2)cc1 (racemic) [Example 26, (R,S)-[-2-(3′-Cyano-biphenyl-4-yl)-4-isopropylaminobutyl]-carbamic acid-4-chlorophenyl ester]	501 to 2500 nM
CCNC(=O)NC1CCN(CCC(CNC(=O)Nc2cc(Cl)cc(Cl)c2)c2ccc(-c3cccc(C#N)c3)cc2)C1 [Example 27, (R,S)-1-1-{3-(3′-Cyano-biphenyl-4-yl)-4-[3 (3,5-dichloro-phenyl)-ureido]-butyl}-pyrrolidin-3-yl)-3-ethyl-urea]	501 to 2500 nM
N#Cc1cccc(-c2ccc([C@H](CCN3CC[C@@H](NC(=O)c4cc(Cl)cc(Cl)c4)C3)CNC(=O)Nc3cc(Cl)cc(Cl)c3)cc2)c1 [Example 28, (R,S)-3,5-Dichloro-N-(1-{3-(3′-cyano-biphenyl-4-yl)-4-[3-(3,5-dichloro-phenyl)-ureido]-butyl}-pyrrolidin-3-yl)-benzamide]	501 to 2500 nM
CNCCC(C(=O)Nc1cc(Cl)cc(Cl)c1)c1ccc(-c2cccc(C#N)c2)cc1 (centres unmarked) [Example 31, 2-(3′-Cyano-biphenyl-4-yl)-N-(3,5-dichloro-phenyl)-4-methylamino-butyramide]	501 to 2500 nM
CN(C)CCC(CN1CCN(c2cc(Cl)cc(Cl)c2)C1=O)c1ccc(-c2cccc(C#N)c2)cc1 (centres unmarked) [Example 32, 4′-{1-[3-(3,5-Dichlorophemyl)-2-oxoimidazolidin-1-ylmethyl]-3-dimethylaminopropyl}-biphenyl-3-carbonitrile]	501 to 2500 nM
CN(C)CCC(OC(=O)Nc1cc(Cl)cc(Cl)c1)c1ccc(-c2ccncc2)cc1 (centres unmarked) [Example 33, (3,5-Dichloro-phenyl)-carbamic acid 3-dimethylamino-1-(4-pyridin-4-yl-phenyl)-propyl ester]	501 to 2500 nM
O=C(NCC(CCNC1CCCC1)c1ccc(-c2cc[n+]([O-])cc2)cc1)Nc1cc(Cl)cc(Cl)c1 (centres unmarked) [Example 37]	0.4 to 50 nM
C[N+](C)([O-])CCC(CNC(=O)Nc1cc(Cl)cc(Cl)c1)c1ccc(-c2ccc[n+]([O-])c2)cc1 (centres unmarked) [Example 40]	501 to 2500 nM
CN(C)CCC(OC(=O)Nc1cc(Cl)cc(Cl)c1)c1ccc(-c2cccnc2)cc1 (centres unmarked) [Example 42]	501 to 2500 nM
CNCCC(CNC(=O)Nc1ccc(F)c(F)c1)c1ccc(-c2cccc(C#N)c2)cc1 (centres unmarked) [Example 44]	0.4 to 50 nM
CNCCC(CNC(=O)Nc1cccc(Cl)c1)c1ccc(-c2cccc(C#N)c2)cc1 (centres unmarked) [Example 45]	0.4 to 50 nM
N#Cc1cccc(-c2ccc(C(CCNC3CC3)CNC(=O)Nc3ccc(F)c(F)c3)cc2)c1 (centres unmarked) [Example 53]	0.4 to 50 nM
N#Cc1cccc(-c2ccc(C(CCNC3CC3)CNC(=O)Nc3cccc(F)c3)cc2)c1 (centres unmarked) [Example 54]	0.4 to 50 nM
CNCCC(CNC(=O)Nc1ccccc1)c1ccc(-c2cccc(C#N)c2)cc1 (centres unmarked) [Example 57]	0.4 to 50 nM
CNCCC(CNC(=O)Nc1ccc(F)cc1)c1ccc(-c2cccc(C#N)c2)cc1 (centres unmarked) [Example 60]	0.4 to 50 nM
COc1cccc(NC(=O)NCC(CCN(C)C)c2ccc(-c3cccc(C#N)c3)cc2)c1 (centres unmarked) [Example 63]	0.4 to 50 nM
N#Cc1cccc(-c2ccc(C(CCNC3CC3)CNC(=O)Nc3ccc(Cl)cc3)cc2)c1 (centres unmarked) [Example 65]	0.4 to 50 nM
CN(C)CCC(CNC(=O)c1cc(F)cc(F)c1)c1ccc(-c2cccc(C#N)c2)cc1 (centres unmarked) [Example 66]	0.4 to 50 nM
N#Cc1cccc(-c2ccc(C(CCNC3CCCC3)CNC(=O)Nc3ccc(F)c(Cl)c3)cc2)c1 (centres unmarked) [Example 75]	0.4 to 50 nM
N#Cc1cccc(-c2ccc(C(CCNC3CC3)CNC(=O)Nc3cc(Cl)cc(Cl)c3)cc2)c1 (centres unmarked) [Example 76]	0.4 to 50 nM
N#Cc1cccc(-c2ccc(C(CCNC3CCCC3)CNC(=O)c3cccc(F)c3)cc2)c1 (centres unmarked) [Example 84]	51 to 500 nM
CS(=O)(=O)N(CCC(CNC(=O)Nc1cc(Cl)cc(Cl)c1)c1ccc(-c2cccc(C#N)c2)cc1)C1CCCC1 (centres unmarked) [Example 87]	501 to 2500 nM
CN(C)CCCNCCC(CNC(=O)Nc1cc(Cl)cc(Cl)c1)c1ccc(-c2cccc(OC(F)(F)F)c2)cc1 (centres unmarked) [Example 88]	0.4 to 50 nM
Cc1noc(C)c1-c1ccc(C(CCNC2CCCC2)CNC(=O)Nc2cc(Cl)cc(Cl)c2)cc1 (centres unmarked) [Example 97]	51 to 500 nM

Next, values leading:

Ki	SMILES
501 to 2500 nM	O=S(=O)(NCC(CCNC1CCCC1)c1ccc(Cl)c(Cl)c1)c1ccc(Cl)c(Cl)c1 (racemic) [Example 21, (R,S)-3,4-Dichloro-N-[4-cyclopentylamino-2-(3,4-dichloro-phenyl)-butyl]-benzenesulfonamide]
501 to 2500 nM	O=C(NCC(CCNC1CCC1)c1ccc(Cl)c(Cl)c1)Nc1ccc(F)c([N+](=O)[O-])c1 (racemic) [Example 22]
501 to 2500 nM	CNCCC(CNC(=O)c1ccc(F)c(F)c1)c1ccc(-c2cccc(C#N)c2)cc1 (racemic) [Example 24, (R,S)-N-[2-(3′-Cyano-biphenyl-4-yl)-4-methylamino-butyl]-3,4-difluoro-benzamide]
501 to 2500 nM	CN(C)CCC(CNS(=O)(=O)c1cc(Cl)cc(Cl)c1)c1ccc(-c2cccc(C#N)c2)cc1 (racemic) [Example 25, (R,S)-3,5-Dichloro-N-[2-(3′-cyano-biphenyl-4-yl)-4-dimethylaminobutyl]-benzenesulfonamide]
501 to 2500 nM	CS(=O)(=O)NC1CCN(CCC(CNC(=O)Nc2cc(Cl)cc(Cl)c2)c2ccc(-c3cccc(C#N)c3)cc2)CC1 (racemic) [Example 29, (R,S)-N-(1-{3-(3′-Cyano-biphenyl-4-yl)-4-[3-(3,5-dichloro-phenyl)-ureido]-butyl}-piperidin-4-yl)methane-sulfonamide]
501 to 2500 nM	CN(CCC(C(=O)NCc1cc(C(F)(F)F)cc(C(F)(F)F)c1)c1ccc(Cl)c(Cl)c1)C1CCCCC1 (racemic) [Example 30, (R,S)-N-(3,5-Bistrifluoromethyl-benzyl)-4-(cyclohexyl-methyl-amino)-2-(3,4-dichloro-phenyl)-butyramide]
0.4 to 50 nM	CN(C)CCCNCCC(CNC(=O)Nc1cc(Cl)cc(Cl)c1)c1ccc(-c2cccnc2)cc1 (centres unmarked) [Example 35]
0.4 to 50 nM	CN(C)CCC(CNC(=O)Nc1cc(Cl)cc(Cl)c1)c1ccc(-c2cccnc2)cc1 (centres unmarked) [Example 36]
0.4 to 50 nM	CN(C)CCC(CNC(=O)Nc1cc(Cl)cc(Cl)c1)c1ccc(-c2cccc(C(N)=O)c2)cc1 (centres unmarked) [Example 38]
51 to 500 nM	CN(C)CCC(CNC(=O)Nc1cc(Cl)cc(Cl)c1)c1ccc(-c2ccncc2)cc1 (centres unmarked) [Example 39]
501 to 2500 nM	C[N+](C)([O-])CCC(CNC(=O)Nc1cc(Cl)cc(Cl)c1)c1ccc(-c2cc[n+]([O-])cc2)cc1 (centres unmarked) [Example 41]
0.4 to 50 nM	N#Cc1cccc(-c2ccc(C(CCNC3CC3)CNC(=O)Nc3cccc(Cl)c3)cc2)c1 (centres unmarked) [Example 43]
0.4 to 50 nM	CNCCC(CNC(=O)Nc1ccc(F)c(Cl)c1)c1ccc(-c2cccc(C#N)c2)cc1 (centres unmarked) [Example 46]
0.4 to 50 nM	CNCCC(CNC(=O)Nc1cccc(F)c1)c1ccc(-c2cccc(C#N)c2)cc1 (centres unmarked) [Example 49]
0.4 to 50 nM	N#Cc1cccc(-c2ccc(C(CCNC3CC3)CNC(=O)Nc3ccc(F)c(Cl)c3)cc2)c1 (centres unmarked) [Example 56]
0.4 to 50 nM	N#Cc1cccc(-c2ccc(C(CCNC3CC3)CNC(=O)Nc3ccccc3)cc2)c1 (centres unmarked) [Example 58]
0.4 to 50 nM	N#Cc1cccc(-c2ccc(C(CCNC3CC3)CNC(=O)Nc3ccc(F)cc3)cc2)c1 (centres unmarked) [Example 59]

Ki	SMILES
0.4 to 50 nM	CNCCC(CNC(=O)Nc1ccc(Cl)cc1)c1ccc(-c2cccc(C#N)c2)cc1 (centres unmarked) [Example 64]
51 to 500 nM	CN(C)CCC(CNC(=O)c1ccc(F)c(F)c1)c1ccc(-c2cccc(C#N)c2)cc1 (centres unmarked) [Example 67]
51 to 500 nM	N#Cc1cccc(-c2ccc(C(CCNC3CC3)CNC(=O)c3ccc(F)c(F)c3)cc2)c1 (centres unmarked) [Example 68]
51 to 500 nM	N#Cc1cccc(-c2ccc(C(CCNC3CC3)CNC(=O)c3cc(F)cc(F)c3)cc2)c1 (centres unmarked) [Example 69]
51 to 500 nM	CNCCC(CNC(=O)c1cc(F)cc(F)c1)c1ccc(-c2cccc(C#N)c2)cc1 (centres unmarked) [Example 70]
51 to 500 nM	CN(C)CCC(CNC(=O)Nc1cccnc1)c1ccc(-c2cccc(C#N)c2)cc1 (centres unmarked) [Example 71]
0.4 to 50 nM	COCCNCCC(CNC(=O)Nc1cc(Cl)cc(Cl)c1)c1ccc(-c2cccc(C#N)c2)cc1 (centres unmarked) [Example 72]
0.4 to 50 nM	N#Cc1cccc(-c2ccc(C(CCNC3CCCC3)CNC(=O)Nc3ccc(F)c(F)c3)cc2)c1 (centres unmarked) [Example 74]
0.4 to 50 nM	N#Cc1cccc(-c2ccc(C(CCN3CCOCC3)CNC(=O)Nc3cc(Cl)cc(Cl)c3)cc2)c1 (centres unmarked) [Example 81]
51 to 500 nM	N#Cc1cccc(-c2ccc(C(CCNC3CCCC3)CNC(=O)c3cc(Cl)cc(Cl)c3)cc2)c1 (centres unmarked) [Example 82]
51 to 500 nM	N#Cc1cccc(-c2ccc(C(CCNC3CCCC3)CNC(=O)c3ccc(F)c(F)c3)cc2)c1 (centres unmarked) [Example 83]
51 to 500 nM	N#Cc1cccc(-c2ccc(C(CCNC3CCCC3)CNC(=O)c3cccc(Cl)c3)cc2)c1 (centres unmarked) [Example 85]
0.4 to 50 nM	O=C(NCC(CCNC1CCCC1)c1ccc(-c2ccc(F)c(F)c2)cc1)Nc1cc(Cl)cc(Cl)c1 (centres unmarked) [Example 90]
0.4 to 50 nM	CN(C)CCCNCCC(CNC(=O)Nc1cc(Cl)cc(Cl)c1)c1ccc(-c2ccc(F)c(F)c2)cc1 (centres unmarked) [Example 92]
0.4 to 50 nM	O=C(NCC(CCNC1CCCC1)c1ccc(-c2ccc[n+]([O-])c2)cc1)Nc1cc(Cl)cc(Cl)c1 (centres unmarked) [Example 94]
0.4 to 50 nM	O=C(NCC(CCNC1CCCC1)c1ccc(-c2cc(F)cc(F)c2)cc1)Nc1cc(Cl)cc(Cl)c1 (centres unmarked) [Example 95]
51 to 500 nM	CN(C)CCCNCCC(CNC(=O)Nc1cc(Cl)cc(Cl)c1)c1ccc(-c2ccc(C#N)cc2)cc1 (centres unmarked) [Example 98]
